# Reference: patent US8722052B2, “Vaccinia virus protein A46 peptide and use thereof” (priority 2008, dated 2014)
# System: TLR4
# Assay: LPS-induced NFκB reporter assay in HEK293_TLR4 cells
# Format: cell-based, human
# Settings: peptide 5 or 25 μM added 2 or 9 hours after 10 ng/ml LPS
# Description: FIGS. 20A and B are bar charts showing the effect of shortened A464 peptides with deletions of N- and C-terminal amino acids on TLR4- and TLR3-induced NFκB activation in HEK293 cells. HEK293_TLR4 (A) and HEK293_TLR3 (B) cells were seeded in 96 well plates (1.5×10^5 cells/ml) 24 hours before transfection with the plasmid DNA. Cells were transfected with 60 ng NFκB-Luciferase and 20 ng of TK-Renilla reporter genes, as in FIG. 11. A464N-2 (SEQ ID NO. 41) and A464C-3 (SEQ ID NO. 42) peptides were added to the cells at a concentration of 1, 5 or 25 μM the next day and cells were stimulated with either 10 ng/ml LPS (A) or 25 μg/ml Poly(I:C) (B) 1 hour after treatment with peptides. Cells were harvested and assayed for NFκB activation by reporter gene assay 6 hours after stimulation with the agonists. No peptides were added to the control wells (black bars). Data is representative of three experiments each performed in triplicate and is expressed as mean fold induction±s.d. relative to control levels;
# FIGS. 24A and B are bar charts showing the effect of A464 on ligand-independent TLR4 signalling in HEK293 cells. HEK293_TLR4 cells were seeded in 96 well plate (1.5×10^5 cells/ml) 24 hours before transfection with NFκB-luciferase and TK-Renilla reporter gene plasmids. NFκB activation was stimulated by transfecting either 50 or 100 ng of CD4/TLR4-encoding plasmid or by stimulating with 10 ng/ml LPS. The total amount of plasmid DNA transfected into the cells was made up to 230ng by adding pcDNA. A464 (SEQ ID NO. 20) was added to the cells at a concentration of 5 or 25 μM 2 hours (A) or 9 hours (B) after the transfection or LPS-stimulation. Cells were harvested and assayed for NFκB activation by reporter gene assay 24 hours post-transfection. No peptides were added to the control wells (black bars). Data is representative of two experiments, each performed in triplicate and is expressed as mean fold induction±s.d. relative to control levels;
# HEK293 cells were transfected using GeneJuice® a proprietary non-toxic transfection reagent. […]
# TLR4, sequence (O00206 24-839): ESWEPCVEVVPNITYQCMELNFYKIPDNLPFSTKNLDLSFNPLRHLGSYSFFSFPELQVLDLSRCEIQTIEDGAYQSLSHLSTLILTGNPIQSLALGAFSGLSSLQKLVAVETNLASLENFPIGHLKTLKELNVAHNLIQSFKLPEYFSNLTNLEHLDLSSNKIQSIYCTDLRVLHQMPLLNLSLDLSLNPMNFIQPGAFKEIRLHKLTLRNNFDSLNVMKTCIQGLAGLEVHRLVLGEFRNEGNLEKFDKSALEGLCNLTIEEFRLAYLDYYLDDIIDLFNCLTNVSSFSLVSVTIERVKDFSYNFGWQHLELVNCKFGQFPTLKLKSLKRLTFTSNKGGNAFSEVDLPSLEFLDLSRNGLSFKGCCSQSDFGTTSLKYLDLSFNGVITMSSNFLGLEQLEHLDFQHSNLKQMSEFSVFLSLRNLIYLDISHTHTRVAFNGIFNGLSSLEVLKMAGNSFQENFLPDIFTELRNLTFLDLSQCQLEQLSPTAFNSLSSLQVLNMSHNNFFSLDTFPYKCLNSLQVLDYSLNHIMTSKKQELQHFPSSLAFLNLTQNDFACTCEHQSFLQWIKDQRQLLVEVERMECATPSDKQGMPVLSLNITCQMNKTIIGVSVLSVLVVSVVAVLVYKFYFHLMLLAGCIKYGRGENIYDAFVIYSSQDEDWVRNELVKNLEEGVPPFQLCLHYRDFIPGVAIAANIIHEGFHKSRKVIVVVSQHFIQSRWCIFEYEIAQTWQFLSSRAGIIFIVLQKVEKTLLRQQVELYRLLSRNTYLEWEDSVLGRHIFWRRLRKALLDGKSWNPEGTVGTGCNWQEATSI
# TLR4, sequence (Q9Y6Y9 17-160 partner limits assumed): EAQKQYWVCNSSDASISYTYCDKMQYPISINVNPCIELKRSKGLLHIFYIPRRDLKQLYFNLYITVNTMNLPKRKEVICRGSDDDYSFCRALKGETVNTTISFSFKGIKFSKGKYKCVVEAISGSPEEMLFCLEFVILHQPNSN
sequence,measurement,value
KYSFKLILAEYRRRRRRRRR [Peptide A464],inhibition of LPS-induced NFκB activation,capable of inhibiting LPS-induced NFκB activation
